Residues, ends and D or L forms follow the SMILES beside them. *: point of attachment. X1 = O=C(O)CCC(NC(=O)NC(CCCCNC(=O)CCCCCCC(=O)*)C(=O)O)C(=O)O; Acetyl(2-STrt) = O=C(CSC(c1ccccc1)(c1ccccc1)c1ccccc1)*
molecular target: PSMA (Homo sapiens, UniProt Q04609); experiment: NAALADase assay; type: biochemical
Sequence (Q04609 whole entry): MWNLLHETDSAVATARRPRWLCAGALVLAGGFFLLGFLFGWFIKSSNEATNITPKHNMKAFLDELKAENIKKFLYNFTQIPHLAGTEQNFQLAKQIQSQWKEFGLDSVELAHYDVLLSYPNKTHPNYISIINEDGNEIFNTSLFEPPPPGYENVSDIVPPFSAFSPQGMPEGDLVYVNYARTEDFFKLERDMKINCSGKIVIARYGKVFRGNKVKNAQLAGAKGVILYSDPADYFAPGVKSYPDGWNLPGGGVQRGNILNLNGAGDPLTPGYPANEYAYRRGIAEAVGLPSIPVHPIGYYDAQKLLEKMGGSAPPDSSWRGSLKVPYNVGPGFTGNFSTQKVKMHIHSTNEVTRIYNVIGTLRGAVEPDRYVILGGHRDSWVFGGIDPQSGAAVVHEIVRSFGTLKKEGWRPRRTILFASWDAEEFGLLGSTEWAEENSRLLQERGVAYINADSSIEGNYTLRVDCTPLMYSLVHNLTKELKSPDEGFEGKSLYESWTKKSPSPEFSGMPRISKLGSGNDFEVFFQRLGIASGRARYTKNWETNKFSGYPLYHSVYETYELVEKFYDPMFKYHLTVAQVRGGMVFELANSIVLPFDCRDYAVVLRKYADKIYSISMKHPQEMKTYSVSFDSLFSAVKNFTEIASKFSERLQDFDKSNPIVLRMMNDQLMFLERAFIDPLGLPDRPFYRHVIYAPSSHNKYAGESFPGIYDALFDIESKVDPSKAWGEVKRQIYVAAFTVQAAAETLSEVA

| Compound | Ki [nM] |
| --- | --- |
| NC(Cc1cn(CCCC[C@H](NC(=O)CCCCCCC(=O)NCCCC[C@H](NC(=O)N[C@@H](CCC(=O)O)C(=O)O)C(=O)O)C(=O)O)nn1)C(=O)O (stereo partly drawn) [Compound L8, (3S,7S,22S)-26-(4-(2-amino-2-carboxyethyl)-1H-1,2,3-triazol-1-yl)-5,13,20-trioxo-4,6,12,21-tetraazahexacosane-1,3,7,22-tetracarboxylic acid] | 1.12 |
| O=C(O)CCC(NC(=O)NC(CCCCNC(=O)CCCCCCC(=O)NC(CCCCN(CC(=O)O)Cc1ccccn1)C(=O)O)C(=O)O)C(=O)O (centres unmarked) [Compound L9, 2-[3-(1-Carboxy-5-(7-[1-carboxy-5-(carboxymethyl-pyridin-2-ylmethyl-amino)-pentylcarbamoyl]-heptanoylamino)-pentyl)-ureido]-pentanedioic acid] | 12.6 |
| O=C(O)CCC(NC(=O)NC(CCCCNC(=O)CCCCCCC(=O)NC(CCCCN(Cc1ncc[nH]1)Cc1ncc[nH]1)C(=O)O)C(=O)O)C(=O)O (centres unmarked) [Compound L10, 2-{3-[5-(7-(5-[Bis-(1H-imidazol-2-ylmethyl)-amino]-1-carboxy-pentylcarbamoyl)-heptanoylamino)-1-carboxy-pentyl]-ureido}-pentanedioic acid] | 16.3 |
| O=C(O)CCC(NC(=O)NC(CCCCNC(=O)CCCCCCC(=O)NCCCCC(NC(=O)CNC(=O)CNC(=O)CSC(c1ccccc1)(c1ccccc1)c1ccccc1)C(=O)O)C(=O)O)C(=O)O (centres unmarked) [Compound L11] | 0.03 |
| O=C(O)CCC(NC(=O)NC(CCCCNC(=O)CCCCCCC(=O)NCCCCC(NC(=O)C(Cc1ccccc1)NC(=O)CNC(=O)CNC(=O)CSC(c1ccccc1)(c1ccccc1)c1ccccc1)C(=O)O)C(=O)O)C(=O)O (centres unmarked) [Compound L12, 12-benzyl-4,7,10,13,21,28,36-heptaoxo-1,1,1-triphenyl-2-thia-5,8,11,14,20,29,35,37-octaazatetracontane-15,34,38,40-tetracarboxylic acid] ({Acetyl(2-STrt)}-GGFK(X1)-OH; configuration not given here) | 0.13 |

Other lines, results leading:

| Ki [nM] | Compound |
| --- | --- |
| 1.91 | O=C(O)CCC(NC(=O)NC(CCCCNC(=O)CCCCCCC(=O)NCCCCC(NC(=O)C(Cc1ccccc1)NC(=O)C(Cc1ccccc1)NC(=O)CNC(=O)CNC(=O)CSC(c1ccccc1)(c1ccccc1)c1ccccc1)C(=O)O)C(=O)O)C(=O)O (centres unmarked) [Compound L13, 12,15-dibenzyl-4,7,10,13,16,24,31,39-octaoxo-1,1,1-triphenyl-2-thia-5,8,11,14,17,23,32,38,40-nonaazatritetracontane-18,37,41,43-tetracarboxylic acid] ({Acetyl(2-STrt)}-GGFFK(X1)-OH; configuration not given here) |
| 0.048 | O=C(O)CC[C@H](NC(=O)N[C@@H](CCCCNC(=O)CCCCCCC(=O)NCCCC[C@@H](NC(=O)C(CNC(=O)CSC(c1ccccc1)(c1ccccc1)c1ccccc1)NC(=O)CSC(c1ccccc1)(c1ccccc1)c1ccccc1)C(=O)O)C(=O)O)C(=O)O (stereo partly drawn) [Compound L16, (10R, 29S ,33S)-4,8,16,23,31-pentaoxo-1,1,1-triphenyl-7-(2-(tritylthio)acetamido)-2-thia-5,9,15,24,30,32-hexaazapentatriacontane-10,29,33,35-tetracarboxylic acid] |
| 1.74 | NNc1ccc(C(=O)NCCCCC(NC(=O)CCCCCCC(=O)NCCCCC(NC(=O)NC(CCC(=O)O)C(=O)O)C(=O)O)C(=O)O)cn1 (centres unmarked) [Compound L19, 2-(3-[1-Carboxy-5-(7-(1-carboxy-5-[(6-hydrazino-pyridine-3-carbonyl)-amino]-pentylcarbamoyl)-heptanoylamino)-pentyl]-ureido)-pentanedioic acid] |

From article PMC3773988 (Journal of medicinal chemistry, 2013)
